# Results as given in PubChem BioAssay (NCI).
#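 Cells were grown in 96-well plates and exposed to each compound for 48 hours at five concentrations; endpoints were interpolated linearly between bracketing concentrations, or set to the highest concentration if not reached. Abbreviation: GI50, concentration required for 50% inhibition of growth. The concentration for full growth arrest is given as TGI.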
# Tests used:
# Assay in all cases: NCI anticancer screen, dose series, 48 h
# COLO 205 colon = test system: COLO 205 colon
# T-47D breast = test system: T-47D breast
# PC-3 prostate = test system: PC-3 prostate
# UACC-62 melanoma = test system: UACC-62 melanoma
# EKVX NSCLC = test system: EKVX NSCLC
# OVCAR-5 ovarian = test system: OVCAR-5 ovarian
# HOP-92 NSCLC = test system: HOP-92 NSCLC
# BT-549 breast = test system: BT-549 breast
# MALME-3M melanoma = test system: MALME-3M melanoma
# HCT-15 colon = test system: HCT-15 colon
# HOP-62 NSCLC = test system: HOP-62 NSCLC
# HS 578T breast = test system: HS 578T breast
# UACC-257 melanoma = test system: UACC-257 melanoma
# NCI-H23 lung = test system: NCI-H23 lung
# CAKI-1 renal = test system: CAKI-1 renal
# OVCAR-8 ovarian = test system: OVCAR-8 ovarian
# HCC-2998 colon = test system: HCC-2998 colon
# SW-620 colon = test system: SW-620 colon
# OVCAR-4 ovarian = test system: OVCAR-4 ovarian
# SK-OV-3 ovarian = test system: SK-OV-3 ovarian
# HL-60(TB) leukemia = test system: HL-60(TB) leukemia
# SN12C renal = test system: SN12C renal
# NCI-H522 lung = test system: NCI-H522 lung
# NCI/ADR-RES ovarian = test system: NCI/ADR-RES ovarian
# M14 melanoma = test system: M14 melanoma
# A498 renal = test system: A498 renal
# RXF 393 renal = test system: RXF 393 renal
# NCI-H226 lung = test system: NCI-H226 lung
# DU-145 prostate = test system: DU-145 prostate
# SF-539 CNS = test system: SF-539 CNS
# RPMI-8226 leukemia = test system: RPMI-8226 leukemia
# K-562 leukemia = test system: K-562 leukemia
# U251 CNS = test system: U251 CNS
# HCT-116 colon = test system: HCT-116 colon
# SK-MEL-2 melanoma = test system: SK-MEL-2 melanoma
# HT29 colon = test system: HT29 colon
# MOLT-4 leukemia = test system: MOLT-4 leukemia
# LOX IMVI melanoma = test system: LOX IMVI melanoma
# SNB-75 CNS = test system: SNB-75 CNS
# SF-268 CNS = test system: SF-268 CNS
# A549 NSCLC = test system: A549 NSCLC
# NCI-H460 lung = test system: NCI-H460 lung
# SF-295 CNS = test system: SF-295 CNS
# MCF7 breast = test system: MCF7 breast
# SK-MEL-28 melanoma = test system: SK-MEL-28 melanoma
# KM12 colon = test system: KM12 colon
# SR leukemia = test system: SR leukemia
# UO-31 renal = test system: UO-31 renal
# SK-MEL-5 melanoma = test system: SK-MEL-5 melanoma
# IGROV1 ovarian = test system: IGROV1 ovarian
# CCRF-CEM leukemia = test system: CCRF-CEM leukemia
# MDA-MB-231 breast = test system: MDA-MB-231 breast
# 786-0 renal = test system: 786-0 renal
# SNB-19 CNS = test system: SNB-19 CNS
# TK-10 renal = test system: TK-10 renal
# ACHN renal = test system: ACHN renal
# OVCAR-3 ovarian = test system: OVCAR-3 ovarian
smiles,measurement,setting,value
CCCn1cnc2c(c1=N)C(c1ccc(Cl)cc1)c1sc3c(C)cccc3c1O2 (stereo not drawn),GI50,COLO 205 colon,386 nM
same,TGI,COLO 205 colon,1900 nM
same,GI50,T-47D breast,522 nM
same,TGI,T-47D breast,24300 nM
same,GI50,PC-3 prostate,454 nM
same,TGI,PC-3 prostate,14300 nM
same,GI50,UACC-62 melanoma,490 nM
same,TGI,UACC-62 melanoma,15000 nM
same,GI50,EKVX NSCLC,572 nM
same,TGI,EKVX NSCLC,19400 nM
same,GI50,OVCAR-5 ovarian,674 nM
same,TGI,OVCAR-5 ovarian,13100 nM
same,GI50,HOP-92 NSCLC,1980 nM
same,TGI,HOP-92 NSCLC,14500 nM
same,GI50,BT-549 breast,1490 nM
same,TGI,BT-549 breast,6890 nM
same,GI50,MALME-3M melanoma,10200 nM
same,TGI,MALME-3M melanoma,25100 nM
same,GI50,HCT-15 colon,409 nM
same,TGI,HCT-15 colon,4930 nM
same,GI50,HOP-62 NSCLC,477 nM
same,TGI,HOP-62 NSCLC,10700 nM
same,GI50,HS 578T breast,352 nM
same,TGI,HS 578T breast,5470 nM
same,GI50,UACC-257 melanoma,8900 nM
same,TGI,UACC-257 melanoma,29000 nM
same,GI50,NCI-H23 lung,587 nM
same,TGI,NCI-H23 lung,13100 nM
same,GI50,CAKI-1 renal,192 nM
same,TGI,CAKI-1 renal,14900 nM
same,GI50,OVCAR-8 ovarian,522 nM
same,TGI,OVCAR-8 ovarian,11400 nM
same,GI50,HCC-2998 colon,732 nM
same,TGI,HCC-2998 colon,6100 nM
same,GI50,SW-620 colon,402 nM
same,TGI,SW-620 colon,11700 nM
same,GI50,OVCAR-4 ovarian,1570 nM
same,TGI,OVCAR-4 ovarian,17800 nM
same,GI50,SK-OV-3 ovarian,680 nM
same,TGI,SK-OV-3 ovarian,19700 nM
same,GI50,HL-60(TB) leukemia,346 nM
same,TGI,HL-60(TB) leukemia,1690 nM
same,GI50,SN12C renal,879 nM
same,TGI,SN12C renal,13300 nM
same,GI50,NCI-H522 lung,387 nM
same,TGI,NCI-H522 lung,5700 nM
same,GI50,NCI/ADR-RES ovarian,316 nM
same,TGI,NCI/ADR-RES ovarian,2440 nM
same,GI50,M14 melanoma,314 nM
same,TGI,M14 melanoma,3860 nM
same,GI50,A498 renal,304 nM
same,TGI,A498 renal,1170 nM
same,GI50,RXF 393 renal,217 nM
same,TGI,RXF 393 renal,600 nM
same,GI50,NCI-H226 lung,431 nM
same,TGI,NCI-H226 lung,4080 nM
same,GI50,DU-145 prostate,444 nM
same,TGI,DU-145 prostate,5440 nM
same,GI50,SF-539 CNS,316 nM
same,TGI,SF-539 CNS,1110 nM
same,GI50,RPMI-8226 leukemia,381 nM
same,TGI,RPMI-8226 leukemia,3720 nM
same,GI50,K-562 leukemia,283 nM
same,TGI,K-562 leukemia,4200 nM
same,GI50,U251 CNS,432 nM
same,TGI,U251 CNS,11300 nM
same,GI50,HCT-116 colon,410 nM
same,TGI,HCT-116 colon,2150 nM
same,GI50,SK-MEL-2 melanoma,726 nM
same,TGI,SK-MEL-2 melanoma,16000 nM
same,GI50,HT29 colon,402 nM
same,TGI,HT29 colon,5110 nM
same,GI50,MOLT-4 leukemia,498 nM
same,TGI,MOLT-4 leukemia,7700 nM
same,GI50,LOX IMVI melanoma,701 nM
same,TGI,LOX IMVI melanoma,6730 nM
same,GI50,SNB-75 CNS,237 nM
same,TGI,SNB-75 CNS,2660 nM
same,GI50,SF-268 CNS,953 nM
same,TGI,SF-268 CNS,11100 nM
same,GI50,A549 NSCLC,530 nM
same,TGI,A549 NSCLC,8740 nM
same,GI50,NCI-H460 lung,362 nM
same,TGI,NCI-H460 lung,1900 nM
same,GI50,SF-295 CNS,374 nM
same,TGI,SF-295 CNS,10500 nM
same,GI50,MCF7 breast,339 nM
same,TGI,MCF7 breast,10800 nM
same,GI50,SK-MEL-28 melanoma,2340 nM
same,TGI,SK-MEL-28 melanoma,21900 nM
same,GI50,KM12 colon,443 nM
same,TGI,KM12 colon,11200 nM
same,GI50,SR leukemia,377 nM
same,TGI,SR leukemia,5990 nM
same,GI50,UO-31 renal,612 nM
same,TGI,UO-31 renal,18200 nM
same,GI50,SK-MEL-5 melanoma,430 nM
same,TGI,SK-MEL-5 melanoma,3460 nM
same,GI50,IGROV1 ovarian,464 nM
same,TGI,IGROV1 ovarian,11800 nM
same,GI50,CCRF-CEM leukemia,380 nM
same,GI50,MDA-MB-231 breast,774 nM
same,TGI,MDA-MB-231 breast,13200 nM
same,GI50,786-0 renal,558 nM
same,TGI,786-0 renal,11200 nM
same,GI50,SNB-19 CNS,527 nM
same,TGI,SNB-19 CNS,17600 nM
same,GI50,TK-10 renal,5690 nM
same,TGI,TK-10 renal,24000 nM
same,GI50,ACHN renal,791 nM
same,TGI,ACHN renal,14900 nM
same,GI50,OVCAR-3 ovarian,283 nM
same,TGI,OVCAR-3 ovarian,1050 nM
